Experiments:
[1] = target: GDP-bound NRAS wild-type protein (Homo sapiens, UniProt P01111); assay: Binding to NRAS by surface plasmon resonance (SPR), Single Cycle Kinetics; conditions: for NRAS/KRAS (ratio of KD value for NRAS to KD value for KRAS): GDP-bound NRAS wild-type vs GDP-bound KRAS wild-type
[2] = target: GDP-bound HRAS wild-type protein (Homo sapiens, UniProt P01112); assay: Binding to HRAS by surface plasmon resonance (SPR), Single Cycle Kinetics; conditions: for HRAS/KRAS (ratio of KD value for HRAS to KD value for KRAS): GDP-bound HRAS wild-type vs GDP-bound KRAS wild-type
Chain of GDP-bound HRAS wild-type protein (P01112 whole entry): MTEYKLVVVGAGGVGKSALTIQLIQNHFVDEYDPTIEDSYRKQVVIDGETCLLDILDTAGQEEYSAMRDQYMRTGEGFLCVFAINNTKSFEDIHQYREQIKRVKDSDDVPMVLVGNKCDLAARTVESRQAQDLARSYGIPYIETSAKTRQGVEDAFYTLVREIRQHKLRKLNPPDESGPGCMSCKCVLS

Chain of GDP-bound NRAS wild-type protein (P01111 whole entry): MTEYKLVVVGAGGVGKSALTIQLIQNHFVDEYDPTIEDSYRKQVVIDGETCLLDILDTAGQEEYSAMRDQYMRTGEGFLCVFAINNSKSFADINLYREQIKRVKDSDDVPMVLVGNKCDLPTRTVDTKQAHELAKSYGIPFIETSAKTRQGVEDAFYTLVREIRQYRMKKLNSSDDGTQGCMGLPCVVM

Structure (SMILES) | NRAS/KRAS (ratio of KD value for NRAS to KD value for KRAS) ([1]; SPR) | HRAS/KRAS (ratio of KD value for HRAS to KD value for KRAS) ([2]; SPR) | NRAS/KRAS (ratio of KD value with respect to GDP-bound NRAS wild-type protein to KD value with respect to KRAS) ([1]; SPR) | HRAS/KRAS (ratio of KD value with respect to GDP-bound HRAS wild-type protein to KD value with respect to KRAS) ([2]; SPR) | other results
CCC(CC)[C@H]1C(=O)N(C)[C@H](C(=O)N(C)C)CC(=O)N(C)[C@@H](COC)C(=O)N[C@@H]([C@@H](C)CC)C(=O)N(C)CC(=O)N(C)[C@H]2C/C=C\CCN(C2=O)[C@@H](Cc2ccc(C(F)(F)F)cc2)C(=O)N(C)CC(=O)N[C@@H](CCc2ccc(C(F)(F)F)c(Cl)c2)C(=O)N2CC3(CC3)C[C@H]2C(=O)NC2(CC(C)(C)C2)C(=O)N1C [PP2965] | – | – | – | – | NRAS/KRAS (ratio of KD value with respect to GDP-bound NRAS wild-type protein to KD value with respect to KRAS) ([1]; class symbols): AA (a compound having 20 or more is denoted as AA); HRAS/KRAS (ratio of KD value with respect to GDP-bound HRAS wild-type protein to KD value with respect to KRAS) ([2]; class symbols): A (a compound having 10 or more and less than 20 is denoted as A)
CC[C@H](C)[C@@H]1NC(=O)[C@H](CC2CC2)N(C)C(=O)C[C@@H](C(=O)N(C)C)N(C)C(=O)[C@H](C2CCCC2)N(C)C(=O)C2(CC(C)(C)C2)NC(=O)[C@@H]2C[C@H](C)CN2C(=O)[C@H](CCc2ccc(C(F)(F)F)c(OC)c2)NC(=O)CN(C)C(=O)[C@H](Cc2ccc(C)cc2)N2CC/C=C\C[C@@H](C2=O)N(C)C(=O)CN(C)C1=O [PP1898] | B (a compound having 3 or more and less than 10 is denoted as B) | B (a compound having 3 or more and less than 10 is denoted as B) | – | – | –
CCO[C@@H]1C[C@H]2C(=O)NC3(CCC3)C(=O)N(C)[C@@H](C3CCCC3)C(=O)N(C)[C@H](C(=O)N3CCOCC3)CC(=O)N(C)[C@@H](CC3CCC3)C(=O)N[C@@H]([C@@H](C)CC)C(=O)N(C)CC(=O)N(C)[C@H]3CCCCCN(C3=O)[C@@H](Cc3ccc(C(F)(F)F)cc3)C(=O)N(C)CC(=O)N[C@@H](CCc3cc(F)c(C(F)(F)F)c(F)c3)C(=O)N2C1 [PP0683] | – | – | B (a compound having 3 or more and less than 10 is denoted as B) | B (a compound having 3 or more and less than 10 is denoted as B) | –
CCO[C@@H]1C[C@H]2C(=O)NC3(CCC3)C(=O)N(C)[C@@H](C3CCCC3)C(=O)N(C)[C@H](C(=O)N(C)C)CC(=O)N(C)C[C@@H](C)C(=O)N[C@@H]([C@@H](C)CC)C(=O)N(C)CC(=O)N(C)[C@H]3CCCCN(C3=O)[C@@H](Cc3ccc(C(F)(F)F)cc3)C(=O)N(C)CC(=O)N[C@@H](CCc3cc(F)c(C(F)(F)F)c(F)c3)C(=O)N2C1 [PP0706] | – | – | B (a compound having 3 or more and less than 10 is denoted as B) | B (a compound having 3 or more and less than 10 is denoted as B) | –
CCO[C@@H]1C[C@H]2C(=O)NC3(CC(C)(C)C3)C(=O)N(C)[C@@H](C3CCCC3)C(=O)N(C)[C@H](C(=O)N(C)CC)CC(=O)N(C)[C@@H](C(C)C)C(=O)N[C@@H]([C@@H](C)CC)C(=O)N(C)CC(=O)N(C)[C@H]3C/C=C\CCN(C3=O)[C@@H](Cc3ccc(C(F)(F)F)cc3)C(=O)N(C)CC(=O)N[C@@H](CCc3ccc(C(F)(F)F)c(OC)c3)C(=O)N2C1 [PP1977] | AA (a compound having 20 or more is denoted as AA) | A (a compound having 10 or more and less than 20 is denoted as A) | – | – | –
CC[C@H](C)[C@@H]1NC(=O)[C@H](COC)N(C)C(=O)C[C@@H](C(=O)N(C)C)N(C)C(=O)[C@H](C2CCCC2)N(C)C(=O)C2(CC(C)(C)C2)NC(=O)[C@@H]2CC(F)(F)CN2C(=O)[C@H](CCc2cc(F)c(C(F)(F)F)c(F)c2)NC(=O)CN(C)C(=O)[C@H](Cc2ccc(C(F)(F)F)cc2)N2CC/C=C\C[C@@H](C2=O)N(C)C(=O)CN(C)C1=O [PP1717] | A (a compound having 10 or more and less than 20 is denoted as A) | A (a compound having 10 or more and less than 20 is denoted as A) | – | – | –
